Read-outs that look alike come from different tables or passages of the source.
Columns and labels:
human KHK-A = human KHK-A (Homo sapiens (Human), UniProt P50053); assay: KHK Biochemical Assay (IC50), ADP-Glo, KHK-A; details: average of at least two separate assays
In short: (§1)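 ADP-Glo luminescence measured ADP made over a 4 h room-temperature reaction of ATP plus fructose, started after 30 min compound–enzyme pre-incubation. Buffer: 50 mM Hepes pH 7.4, 140 mM KCl, 5 mM MgCl2, 0.01% Triton-X. Enzyme was His-tagged, BL21 (DE3)-expressed, Ni-NTA-purified; compounds in 1:3 DMSO dilution series.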

[1] = target: KHK-C expressed in NRK-52E cells (Homo sapiens (Human), UniProt P50053); assay: KHK-C Cell-based Assay (EC50), NRK CTG, fructose-mediated ATP-depletion
Chain of KHK-C expressed in NRK-52E cells (P50053 whole entry): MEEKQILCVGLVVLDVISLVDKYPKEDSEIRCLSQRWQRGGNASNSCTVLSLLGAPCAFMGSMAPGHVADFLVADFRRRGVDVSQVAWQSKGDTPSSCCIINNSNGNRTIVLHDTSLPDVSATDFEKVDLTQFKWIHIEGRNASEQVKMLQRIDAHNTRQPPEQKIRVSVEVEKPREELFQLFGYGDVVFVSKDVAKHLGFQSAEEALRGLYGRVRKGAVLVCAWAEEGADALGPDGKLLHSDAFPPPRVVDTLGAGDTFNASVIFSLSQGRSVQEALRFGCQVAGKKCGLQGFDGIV

human KHK-C = human KHK-C (Homo sapiens (Human), UniProt P50053); assay: KHK Biochemical Assay (IC50), ADP-Glo, KHK-C; details: average of at least two separate assays
Chain of human KHK-C (P50053 whole entry): as above
In short: as §1

Chain of human KHK-A (P50053 other isoform, or with tags, fused parts or gaps): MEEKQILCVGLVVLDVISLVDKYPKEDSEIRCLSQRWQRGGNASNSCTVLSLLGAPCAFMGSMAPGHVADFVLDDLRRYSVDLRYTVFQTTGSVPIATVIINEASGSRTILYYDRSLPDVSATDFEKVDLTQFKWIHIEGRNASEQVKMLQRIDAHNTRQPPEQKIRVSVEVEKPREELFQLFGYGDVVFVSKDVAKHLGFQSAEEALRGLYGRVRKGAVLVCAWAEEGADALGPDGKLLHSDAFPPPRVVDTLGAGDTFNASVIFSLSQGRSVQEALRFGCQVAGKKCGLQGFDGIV

| Structure (SMILES) | IC50 (human KHK-A; ADP-Glo) | EC50 [1] | IC50 (human KHK-C; ADP-Glo) | IC50 (human KHK-A) | IC50 (human KHK-C) | EC50 ([1]; read-out: NRK CTG EC50, NRK-52E cells, Cell-Titer Glo, 25 mM fructose) |
| --- | --- | --- | --- | --- | --- | --- |
| C[C@H]1CCN1c1nc2c(c(-c3cccc([C@H]4C[C@@H]4c4nn[nH]n4)c3)n1)CCC2 (relative stereo) [Example 270, 4-(3-((1S*,2S*)-2-(2H-tetrazol-5-yl)cyclopropyl)phenyl)-2-((S)-2-methylazetidin-1-yl)-6,7-dihydro-5H-cyclopenta[d]pyrimidine] | 62.3 nM | 2140 nM | 44.7 nM |  |  |  |
| C[C@H]1CCN1c1nc2c(c(-c3ccc(C(O)C(F)(F)F)cc3)n1)CCC2 (stereo in doubt) [Example 265, 2,2,2-trifluoro-1-[4-[2-[(2S)-2-methylazetidin-1-yl]-6,7-dihydro-5H-cyclopenta[d]pyrimidin-4-yl]phenyl]ethanol] | 2100 nM | 700 nM | 1630 nM |  |  |  |
| C[C@H]1CCN1c1nc2c(c(-c3ccc(C(N)C(F)(F)F)cc3)n1)CCC2 (stereo in doubt) [Example 269, 2,2,2-trifluoro-1-[4-[2-[(2S)-2-methylazetidin-1-yl]-6,7-dihydro-5H-cyclopenta[d]pyrimidin-4-yl]phenyl]ethanamine] | > 5000 nM | > 5000 nM | > 5000 nM |  |  |  |
| C[C@H]1CCN1c1nc2c(c(-c3cccc([C@H]4C[C@@H]4C#N)c3)n1)CCC2 (stereo in doubt) [Example 454, trans-2-[3-[2-[(2S)-2-methylazetidin-1-yl]-6,7-dihydro-5H-cyclopenta[d]pyrimidin-4-yl]phenyl]cyclopropanecarbonitrile] |  | 546 nM |  | 459 nM | 489 nM |  |
| Cc1ccc(-c2nc(N3CC[C@@H]3C)nc3c2CCC3)cc1C(N)=O [Example 27, (S)-2-methyl-5-(2-(2-methylazetidin-1-yl)-6,7-dihydro-5H-cyclopenta[d]pyrimidin-4-yl)benzamide] | 58.9 nM | 229 nM | 59.7 nM |  |  |  |
| CNC(=O)c1cccc(-c2nc(N3CC[C@@H]3C)nc3c2CCC3)c1 [Example 28, (S)—N-methyl-3-(2-(2-methylazetidin-1-yl)-6,7-dihydro-5H-cyclopenta[d]pyrimidin-4-yl)benzamide] | 55.2 nM | 137 nM | 50.3 nM |  |  |  |
| C[C@H]1CCN1c1nc2c(c(-c3cccc(CCC(N)=O)c3)n1)CCC2 [Example 29] | 55.3 nM | 120 nM | 33 nM |  |  |  |
| Cc1ncc(-c2nc(N3CC[C@@H]3C)nc3c2CCC3)s1 [Example 34, (S)-2-methyl-5-(2-(2-methylazetidin-1-yl)-6,7-dihydro-5H-cyclopenta[d]pyrimidin-4-yl)thiazole] | 52.7 nM | 142 nM | 64.5 nM |  |  |  |
| C[C@H]1CCN1c1nc2c(c(-c3cscn3)n1)CCC2 [Example 36, (S)-4-(2-(2-methylazetidin-1-yl)-6,7-dihydro-5H-cyclopenta[d]pyrimidin-4-yl)thiazole] | 147 nM | 434 nM | 146 nM |  |  |  |
| C[C@H]1[C@H](O)CN1c1nc(-c2cccc(S(N)(=O)=O)c2)c2c(cnn2C)n1 [Example 38] | 812 nM | 12200 nM | 836 nM |  |  |  |
| C[C@H]1[C@H](F)CN1c1nc2c(c(-c3ccc(C(N)=O)s3)n1)CCC2 [Example 58] | 5.8 nM | 9.5 nM | 7.9 nM |  |  |  |
| C[C@H]1CCN1c1nc(-c2cccc(C(N)=O)c2)c2c(n1)[C@@H]1CC[C@H]2C1 [Example 63, 3-((5S,8R)-2-((S)-2-methylazetidin-1-yl)-5,6,7,8-tetrahydro-5,8-methanoquinazolin-4-yl)benzamide] | 112 nM | 138 nM | 95.3 nM |  |  |  |
| C[C@H]1CCN1c1nc2c(c(-c3cccc(C(=O)NCC(=O)O)c3)n1)CCC2 [Example 66, (S)-(3-(2-(2-methylazetidin-1-yl)-6,7-dihydro-5H-cyclopenta[d]pyrimidin-4-yl)benzoyl)glycine] | 64.8 nM | 35500 nM | 54.5 nM |  |  |  |
| C[C@H]1CCN1c1nc2c(c(-c3ccc4[nH]nc(CC(=O)O)c4c3)n1)CCC2 [Example 70, (S)-2-(5-(2-(2-methylazetidin-1-yl)-6,7-dihydro-5H-cyclopenta[d]pyrimidin-4-yl)-1H-indazol-3-yl)acetic acid] | 29.4 nM | > 5000 nM | 51.7 nM |  |  |  |

Next, values leading:

| IC50 (human KHK-A; ADP-Glo) | EC50 [1] | IC50 (human KHK-C; ADP-Glo) | IC50 (human KHK-A) | IC50 (human KHK-C) | EC50 ([1]; read-out: NRK CTG EC50, NRK-52E cells, Cell-Titer Glo, 25 mM fructose) | Structure (SMILES) |
| --- | --- | --- | --- | --- | --- | --- |
| 8.9 nM | 121 nM | 11.2 nM |  |  |  | C[C@H]1CCN1c1nc2c(c(-c3cccc([C@@H]4C[C@H]4C(=O)O)c3)n1)CCC2 (single isomer, unassigned) [Example 90] |
|  | 5.7 nM |  | 0.5 nM | 0.6 nM |  | C[C@H]1[C@H](O)CN1c1nc(-c2ccc(OC3CC3)c([S@@](C)(=N)=O)c2)c2c(n1)C(F)(F)CC2 (single isomer, unassigned) [Example 542] |
|  | 6.7 nM |  | 16.3 nM | 0.8 nM |  | C[C@H]1[C@H](O)CN1c1nc(-c2ccc3c(c2)OC[C@]32NC(=O)OC2(C)C)c2c(n1)C(F)(F)CC2 (single isomer, unassigned) [Example 566] |
|  | 161 nM |  | 35.1 nM | 22.1 nM |  | C[C@H]1[C@H](O)CN1c1nc(-c2ccc3c(c2)CC[C@@]32CCC(=O)N2)c2c(n1)C(F)(F)CC2 (single isomer, unassigned) [Example 637] |
|  | 6.1 nM |  | 8.5 nM | 0.3 nM |  | C[C@H]1[C@H](O)CN1c1nc(-c2ccc3c(c2)CC[C@]32CCC(=O)N2)c2c(n1)C(F)(F)CC2 (single isomer, unassigned) [Example 638] |
|  | 280 nM |  | 38.8 nM | 29.2 nM |  | C[C@H]1[C@H](O)CN1c1nc(-c2ccc3c(c2)COC[C@@]32CCC(=O)N2)c2c(n1)C(F)(F)CC2 (single isomer, unassigned) [Example 640] |
|  |  |  | 14.5 nM | 0.9 nM | 20.3 nM | C[C@H]1[C@H](O)CN1c1nc(-c2ccc3c(c2)COC[C@]32CCC(=O)N2)c2c(n1)C(F)(F)CC2 (single isomer, unassigned) [Example 641] |
|  | 50.4 nM |  | 7.5 nM | 7.4 nM |  | C[C@H]1CCN1c1nc(-c2cccc(N=[S@@](C)(N)=O)c2)c2c(n1)C(F)(F)CC2 (single isomer, unassigned) [Example 691] |
|  | 44.9 nM |  | 6.9 nM | 8.3 nM |  | C[C@H]1CCN1c1nc(-c2cccc(N=[S@](C)(N)=O)c2)c2c(n1)C(F)(F)CC2 (single isomer, unassigned) [Example 692] |
|  | 108 nM |  | 31.8 nM | 20.5 nM |  | C[C@H]1[C@H](O)CN1c1nc(-c2ccc3c(c2)OC[C@]32CN(C)C(=O)N2)c2c(n1)C(F)(F)CC2 (single isomer, unassigned) [Example 701] |
|  | 3.9 nM |  | 11.7 nM | 0.2 nM |  | C[C@H]1[C@H](O)CN1c1nc(-c2ccc3c(c2)OC[C@@]32CN(C)C(=O)N2)c2c(n1)C(F)(F)CC2 (single isomer, unassigned) [Example 702] |
|  | 51.8 nM |  | 44.8 nM | 21.8 nM |  | C[C@H]1CCN1c1nc2c(c(-c3cccc([C@H]4C[C@@H]4C(N)=O)c3)n1)CCC2 (stereo in doubt) [Example 456, trans-2-[3-[2-[(2S)-2-methylazetidin-1-yl]-6,7-dihydro-5H-cyclopenta[d]pyrimidin-4-yl]phenyl]cyclopropanecarboxamide] |
| 86.2 nM | 211 nM | 113 nM |  |  |  | C[C@H]1CCN1c1nc2c(c(-c3ccc4[nH]ncc4c3)n1)CCC2 [Example 39, (S)-5-(2-(2-methylazetidin-1-yl)-6,7-dihydro-5H-cyclopenta[d]pyrimidin-4-yl)-1H-indazole] |
| 102 nM | 602 nM | 125 nM |  |  |  | CC(=O)Nc1cccc(-c2nc(N3C[C@@H](O)[C@@H]3C)nc3c2CCC3)c1 [Example 41] |
| 66.8 nM | 225 nM | 48.1 nM |  |  |  | C[C@H]1[C@H](O)CN1c1nc2c(c(-c3cccc(NS(C)(=O)=O)c3)n1)CCC2 [Example 43, N-(3-(2-((2S,3R)-3-hydroxy-2-methylazetidin-1-yl)-6,7-dihydro-5H-cyclopenta[d]pyrimidin-4-yl)phenyl)methanesulfonamide] |
| 286 nM | 329 nM | 259 nM |  |  |  | C[C@H]1CCN1c1nc2c(c(-c3ccc4cn[nH]c4c3)n1)CCC2 [Example 44, (S)-6-(2-(2-methylazetidin-1-yl)-6,7-dihydro-5H-cyclopenta[d]pyrimidin-4-yl)-1H-indazole] |
| 29.4 nM | 2370 nM | 15.2 nM |  |  |  | C[C@H]1[C@H](O)CN1c1nc2c(c(-c3cccc(C4CC4C(=O)O)c3)n1)CCC2 (stereo partly drawn) [Example 47, 2-(3-(2-((2S,3R)-3-hydroxy-2-methylazetidin-1-yl)-6,7-dihydro-5H-cyclopenta[d]pyrimidin-4-yl)phenyl)cyclopropane-1-carboxylic acid] |
| 7.1 nM | 77.1 nM | 5.3 nM |  |  |  | C[C@H]1[C@H](F)CN1c1nc2c(c(-c3cccc(C4CC4C(=O)O)c3)n1)CCC2 (stereo partly drawn) [Example 48] |
| 12.9 nM | 65.8 nM | 17.8 nM |  |  |  | C[C@H]1[C@H](O)CN1c1nc2c(c(-c3ccc(C(N)=O)s3)n1)CCC2 [Example 57, 5-(2-((2S,3R)-3-hydroxy-2-methylazetidin-1-yl)-6,7-dihydro-5H-cyclopenta[d]pyrimidin-4-yl)thiophene-2-carboxamide] |
| 18 nM | 29.8 nM | 15 nM |  |  |  | C[C@H]1CCN1c1nc2c(c(-c3ccc4c(c3)S(=O)(=O)NC4)n1)CCC2 [Example 72, (S)-6-(2-(2-methylazetidin-1-yl)-6,7-dihydro-5H-cyclopenta[d]pyrimidin-4-yl)-2,3-dihydrobenzo[d]isothiazole 1,1-dioxide] |

— patent US12410160B2 (Gilead Sciences, Inc., priority 2021, dated 2025)
